{
  "source": "patent US20090004726A1",
  "about": "“Inhibitor Tolerant Saccharomyces Cerevisiae Strain” (The United States of America, as represented by the …, priority 2007, published 2009)",
  "key": {"[1]": {"test_system": "Saccharomyces cerevisiae NRRL Y-12632", "test": "Dose-dependent response of ethanologenic yeast to HMF (cell growth, OD600)", "protocol": "A loopful of cells of each strain from the synthetic medium agar plate was transferred into a synthetic broth and incubated at 30° C. with agitation and maintained in the broth prior to inoculum preparation. Cells were harvested by centrifugation 8-15 hours after incubation and suspended in a fresh synthetic broth serving as the inoculum source. The initial OD at 620 nm of the inoculated medium for each culture was adjusted and recorded. Each strain was grown in a 15-ml test tube containing 3 ml of synthetic broth amended with inhibitory compounds in an incubator at 30° C. with agitation at 220 rpm under micro-oxic conditions. Cell growth was monitored by measuring optical absorbance at 620 nm using a spectrophotometer and samples were taken periodically.\nFor inhibitor application, cultures were supplemented with HMF at a series of final concentrations of 0, 10, 30, 60, and 120 mM, or combined inhibitors of furfural and HMF each at 12 mM, respectively. A non inhibitor treated culture served as a control. Cultures were monitored for cell growth at OD600 and samples were taken hourly for the first 16 hours and proper intervals afterward till the completion of the fermentation. Cell free supernatant was taken for metabolic profiling analysis using HPLC. […] Duplicated experiments were carried out for all treatments."}, "[2]": {"test_system": "furfural reduction activity of Y-50049 whole cell extracts", "test": "Whole cell lysate enzyme assay after inhibitor induction (absorbance at 340 nm)", "format": "biochemical, Saccharomyces cerevisiae", "conditions": "induction with 30 mM inhibitor for 3 h; 10 mM furfural substrate; 100 μM NADPH"}},
  "data": [
    {"smiles": "O=Cc1ccc(CO)o1", "note": "[HMF, 5-hydroxymethylfurfural]", "values": [
      {"measurement": "cell growth", "setting": "[1]; HMF at 120 mM", "value": "no cell growth was observed"},
      {"measurement": "cell growth", "setting": "[1]; HMF at 10, 30 and 60 mM, compared with control", "value": "delayed"},
      {"measurement": "lethal dose (cells completely repressed, no biological activity or HMF transformation till 128 hours)", "setting": "[1]; synthetic medium, 30° C.", "value": 120, "unit": "mM"},
      {"measurement": "induced furfural reduction activity coupled with cofactor NADPH", "setting": "[2]", "value": "ranked the least"}
    ]},
    {"smiles": "O=Cc1ccco1", "note": "[furfural]", "values": [
      {"measurement": "induced furfural reduction activity coupled with cofactor NADPH", "setting": "[2]", "value": "strongest activities"}
    ]}
  ]
}
